These results are taken from US12631626B2, “Continuous real-time monitoring of biomolecules in live subjects” (priority 2020, dated 2026).

This test can be described thus: Glucose measurement (RTCM and glucose meter) in an awake diabetic rat after insulin injection. The class given is in vivo. The settings on record: conscious diabetic rat, after 40 minutes, same amount of insulin as in anesthetized rats. The method, then: FIGS. 6A-6B show glucose and insulin measurements in an awake diabetic rat. An awake diabetic rat was injected with human insulin, with blood samples collected at t=0, 5, 20, and 40 min after injection. Glucose levels were measured using RTCM and glucose meter (FIG. 6A), and insulin levels were measured using RTCM and ELISA (FIG. 6B).
Male Sprague Dawley rats (Charles River) were used for experiments. Animal studies were performed in accordance with the guidelines for the care and use of laboratory animals; all protocols were approved by the Stanford Institutional Animal Care and Use Committee. The protocol used for STZ induction adapted from the protocol by Kenneth K. Wu and Youming Huan (Wu, K. K., & Huan, Y. Streptozotocin-induced diabetic models in mice and rats. Curr. Protoc. Pharmacol. 5, 1-14 (2008)). Briefly, male Sprague Dawley rats 160-230 g (8-10 weeks) were weighed and fasted 6-8 hours prior to treatment with STZ. STZ was diluted to 10 mg/mL in the sodium citrate buffer immediately before injection. STZ solution was injected intraperitoneally at 65 mg/kg into each rat. Rats were provided with water containing 10% sucrose for 24 hours after injection with STZ. Rat blood glucose levels were tested for hyperglycemia daily after the STZ treatment via tail vein blood collection using a handheld Bayer Contour Next glucose monitor (Bayer). […]

“insulin: human insulin injected into an awake diabetic rat, same amount as in anesthetized rats; probably Humulin R”: the “Decrease in glucose level” value turned out to be 7 mM.
